Experimental data from patent publication US10028508B2, “Use of active compound compositions” (BAYER CROPSCIENCE AKTIENGESELLSCHAFT, priority 2014, dated 2018).
Where two headings read alike, the source gives them in different places.

Tested on: Anopheles funestus metabolic-resistant strain FUMOZ-R
Assay: Metabolic-Resistant Anopheles Test (mortality on treated tile, wood, concrete)
Type: in vivo
Settings: for mortality at 100 mg/m2: Clothianidin 100 mg/m2, read-out: Mortality Effect %; for mortality at 200 mg/m2: Clothianidin 200 mg/m2, read-out: Mortality Effect %
Experimental: To produce a suitable preparation of active compound combination the active compounds deltamethrin and clothanidin were dissolved in acetone (for the control group only one active compound was dissolved in acetone). The active compound combination preparation (and the active compound preparations) were pipetted onto a glazed tile, wood and concrete and, after drying, adult mosquitoes of the species Anopheles funestus metabolic-resistant strain FUMOZ-R (Hunt et al., Med Vet Entomol. 2005 September; 19(3):271-5) are placed onto the treated tile, wood and concrete. The exposition time is 30 minutes.
1 hour, 2 hour, 4 hour, 24 hours after contact to the treated surface, the mortality proportion of the test animals in % is determined. Here, 100% means that all mosquitoes have been killed; 0% means that none of the mosquitoes has been killed. The treated tile, wood and concrete was stored under stress conditions (30° C./80% rh). Measurement with the treated tile, wood and concrete was repeated 5 weeks (Table 1), 11 weeks (Table 2) and 60 weeks (Table 3) after the treatment with the active compound combination.

[1] = 5 weeks after treatment, Concrete, 1 h after contact
[2] = 5 weeks after treatment, Concrete, 2 h after contact
[3] = 5 weeks after treatment, Concrete, 4 h after contact
[4] = 5 weeks after treatment, Concrete, 24 h after contact
[5] = 5 weeks after treatment, Tile, 1 h after contact
[6] = 5 weeks after treatment, Tile, 2 h after contact
[7] = 5 weeks after treatment, Tile, 4 h after contact
[8] = 5 weeks after treatment, Tile, 24 h after contact
[9] = 5 weeks after treatment, Wood, 1 h after contact
[10] = 5 weeks after treatment, Wood, 2 h after contact
[11] = 5 weeks after treatment, Wood, 4 h after contact
[12] = 5 weeks after treatment, Wood, 24 h after contact
[13] = 11 weeks after treatment, Concrete, 1 h after contact
[14] = 11 weeks after treatment, Concrete, 2 h after contact
[15] = 11 weeks after treatment, Concrete, 4 h after contact
[16] = 11 weeks after treatment, Concrete, 24 h after contact
[17] = 11 weeks after treatment, Tile, 1 h after contact
[18] = 11 weeks after treatment, Tile, 2 h after contact
[19] = 11 weeks after treatment, Tile, 4 h after contact
[20] = 11 weeks after treatment, Tile, 24 h after contact
[21] = 11 weeks after treatment, Wood, 1 h after contact
[22] = 11 weeks after treatment, Wood, 2 h after contact
[23] = 11 weeks after treatment, Wood, 4 h after contact
[24] = 11 weeks after treatment, Wood, 24 h after contact
[25] = 60 weeks after treatment, Concrete, 1 h after contact
[26] = 60 weeks after treatment, Concrete, 2 h after contact
[27] = 60 weeks after treatment, Concrete, 4 h after contact
[28] = 60 weeks after treatment, Concrete, 24 h after contact
[29] = 60 weeks after treatment, Tile, 1 h after contact
[30] = 60 weeks after treatment, Tile, 2 h after contact
[31] = 60 weeks after treatment, Tile, 4 h after contact
[32] = 60 weeks after treatment, Tile, 24 h after contact
[33] = 60 weeks after treatment, Wood, 1 h after contact
[34] = 60 weeks after treatment, Wood, 2 h after contact
[35] = 60 weeks after treatment, Wood, 4 h after contact
[36] = 60 weeks after treatment, Wood, 24 h after contact

CN/C(=N\[N+](=O)[O-])NCc1cnc(Cl)s1 [Clothianidin, clothianidin]
mortality at 100 mg/m2 [1]: 15%
mortality at 200 mg/m2 [1]: 3%
mortality at 100 mg/m2 [2]: 10%
mortality at 200 mg/m2 [2]: 17%
mortality at 100 mg/m2 [3]: 30%
mortality at 200 mg/m2 [3]: 30%
mortality at 100 mg/m2 [4]: 93%
mortality at 200 mg/m2 [4]: 83%
mortality at 100 mg/m2 [5]: 0%
mortality at 200 mg/m2 [5]: 0%
mortality at 100 mg/m2 [6]: 7%
mortality at 200 mg/m2 [6]: 0%
mortality at 100 mg/m2 [7]: 7%
mortality at 200 mg/m2 [7]: 10%
mortality at 100 mg/m2 [8]: 80%
mortality at 200 mg/m2 [8]: 90%
mortality at 100 mg/m2 [9]: 7%
mortality at 200 mg/m2 [9]: 7%
mortality at 100 mg/m2 [10]: 20%
mortality at 200 mg/m2 [10]: 10%
mortality at 100 mg/m2 [11]: 27%
mortality at 200 mg/m2 [11]: 20%
mortality at 100 mg/m2 [12]: 93%
mortality at 200 mg/m2 [12]: 93%
mortality at 100 mg/m2 [13]: 23%
mortality at 200 mg/m2 [13]: 3%
mortality at 100 mg/m2 [14]: 67%
mortality at 200 mg/m2 [14]: 17%
mortality at 100 mg/m2 [15]: 73%
mortality at 200 mg/m2 [15]: 47%
mortality at 100 mg/m2 [16]: 93%
mortality at 200 mg/m2 [16]: 83%
mortality at 100 mg/m2 [17]: 7%
mortality at 200 mg/m2 [17]: 7%
mortality at 100 mg/m2 [18]: 10%
mortality at 200 mg/m2 [18]: 20%
mortality at 100 mg/m2 [19]: 13%
mortality at 200 mg/m2 [19]: 43%
mortality at 100 mg/m2 [20]: 37%
mortality at 200 mg/m2 [20]: 73%
mortality at 100 mg/m2 [21]: 0%
mortality at 200 mg/m2 [21]: 13%
mortality at 100 mg/m2 [22]: 3%
mortality at 200 mg/m2 [22]: 17%
mortality at 100 mg/m2 [23]: 33%
mortality at 200 mg/m2 [23]: 17%
mortality at 100 mg/m2 [24]: 27%
mortality at 200 mg/m2 [24]: 40%
mortality at 100 mg/m2 [25]: 0%
mortality at 200 mg/m2 [25]: 0%
mortality at 100 mg/m2 [26]: 3%
mortality at 200 mg/m2 [26]: 7%
mortality at 100 mg/m2 [27]: 20%
mortality at 200 mg/m2 [27]: 17%
mortality at 100 mg/m2 [28]: 37%
mortality at 200 mg/m2 [28]: 63%
mortality at 100 mg/m2 [29]: 0%
mortality at 200 mg/m2 [29]: 0%
mortality at 100 mg/m2 [30]: 0%
mortality at 200 mg/m2 [30]: 3%
mortality at 100 mg/m2 [31]: 0%
mortality at 200 mg/m2 [31]: 7%
mortality at 100 mg/m2 [32]: 17%
mortality at 200 mg/m2 [32]: 43%
mortality at 100 mg/m2 [33]: 0%
mortality at 200 mg/m2 [33]: 0%
mortality at 100 mg/m2 [34]: 0%
mortality at 200 mg/m2 [34]: 3%
mortality at 100 mg/m2 [35]: 0%
mortality at 200 mg/m2 [35]: 3%
mortality at 100 mg/m2 [36]: 10%
mortality at 200 mg/m2 [36]: 17%
